Here are results for one compound from patent US10005884B2, “Methods for purifying 2-aryl-3,3-bis(hydroxyaryl)phthalimidines” (SABIC GLOBAL TECHNOLOGIES B.V., priority 2014, dated 2018).

The nature of the data set: Solubility of PPPBP in methanol (amount of methanol required to bring PPPBP into solution). Type of data set: physicochemical. An excerpt:
Studies were undertaken to determine the amount of methanol required to bring PPPBP into solution at room temperature and at elevated temperature.

`O=C1c2ccccc2C(c2ccc(O)cc2)(c2ccc(O)cc2)N1c1ccccc1` [Pure PPPBP, 2-phenyl-3,3-bis(4-hydroxyphenyl)phthalimidine] yielded a Volumes of methanol (at reflux temp) of 17 volumes and a Volumes of methanol (at room temp) of 20 volumes.
